Results reported in patent US20240208909A1, “SUBSTITUTED QUINOLINE DERIVATIVES HAVING SOS1 INHIBITION ACTIVITIES AND USES THEREOF” (Accutar Biotechnology Inc., priority 2022, published 2024).

Experiments:
K562 cells = experiment: Cell growth inhibition of K562 cells (CellTiter-Glo); format: cell-based; conditions: Homo sapiens, 120 h, 5 days
Procedure: Example 24: Cell Growth Inhibition of K562 Cells
K562 cells were obtained from American Type Culture Collection (ATCC). For cell growth assay, K562 cells were seeded in 96-well plates at 1000 cells/well in 90 μl of RPM11640 growth medium containing 10% FBS and 1% Penicillin Streptomycin, and then incubated at 37° C. for 1 hour. The test compound was administered to the cells by using 1000× compound stock solution prepared in DMSO at various concentrations. 1000× compound stock solution was first diluted in culturing medium to 10×, then 10 uL compound medium was added to each well in the cell plates. After administration of the compound, the cells were then incubated at 37° C. for 5 days. Upon completion, the plates were equilibrated at room temperature for approximately 10 minutes. 100 ul of CellTiter-Glo® Reagent (Promega) was added to each well. The plates were then incubated at room temperature for 10 minutes and luminescence was recorded by EnSpire plate reader (PerkinElmer).

SOS1/KRAS-G12D = SOS1/KRAS-G12D (Homo sapiens (Human), UniProt Q07889); experiment: SOS1/KRAS-G12D binding inhibition assay (AlphaScreen); conditions: GST-SOS1 and 6*His KRAS-G12D, read-out: KrasG12D/SOS1 binding IC50
Procedure: Example 22: SOS1/KRAS-G12D Binding Inhibition Assay
SOS1 binding affinity of candidate compounds was measured by monitoring the interaction of SOS1 with KRAS-G12D in the presence of the test compound. Briefly, 5 nM GST tagged SOS1 proteins (final concentration) were pre-incubated with 50 nM 6*His tagged KRAS-G12D proteins (final concentration) in an assay buffer containing 10 mM HEPES, pH 7.4, 150 mM NaCl, 1 mM DTT, 5 mM MgCl2, 0.1% Tween-20, and 0.05% BSA for 30 minutes. The test compounds in 2% DMSO (final concentration) at various concentrations were then added to the reaction mixture and incubated for another 30 minutes at 4° C. 5 ug/ml GSH AlphaScreen donor beads (PerkinElmer, 6765300) and 5 ug/ml nickel chelate (Ni-NTA) AlphaScreen acceptor beads (PerkinElmer, 6760619C) (final concentrations) were then added to the mixture. After an incubation of 2 hours at 4° C., the fluorescent signals were obtained on the EnVision® 2105 Multilabel Plate Reader (PerkinElmer).
Raw AlphaScreen data were converted to a percentage of inhibition (relative to DMSO) using the following equations: • a) For a given test compound concentration X:
Signal (X)=Signal (SOS1 & KRAS-G12D & compound)-Signal (buffer & KRAS-G12D & compound)
Percentage of inhibition at concentration X=[1−Signal (X)/Signal (DMSO)]*100% b)
The IC50 values were determined by nonlinear regression of plots of [inhibitor] vs. percentage of inhibition with variable slope, analyzed using GraphPad Prism 9.

[1] = system: Phospho-ERK1/2 in DLD1 cells; experiment: Phospho-ERK1/2 expression inhibition in DLD1 cells; format: cell-based; conditions: Homo sapiens, DLD-1, 4 hours, read-out: DLD1 pERK IC50
Procedure: Example 23: Phospho-ERK1/2 Expression Inhibition in DLD1 Cells
DLD1 cells were obtained from American Type Culture Collection (ATCC). DLD1 cells were plated in 96-well plates (VWR #10062-900, or Corning #3904) in 90 uL culture medium at a density of 15,000 cells/well in the RPM11640 growth medium containing 10% FBS and 1% Penicillin Streptomycin, and then incubated at 37° C. overnight. The following day, the test compound was administered to the cells by using 1000×x compound stock solution prepared in DMSO at various concentrations. 1000× compound stock solution was first diluted in culturing medium to 10×, then 10 uL compound medium was added to each well in the cell plates. After administration of the compound, the cells were then incubated at 37° C. for 4 hours. Upon completion, the cells were washed with PBS briefly. 150 uL/well of 4% formaldehyde was added and the plates were incubated at room temperature for 20 mins. The cells were washed with PBS briefly, and permeabilized with 150 uL/well of ice cold 100% methanol for 10 mins. The cells were washed with PBS briefly and blocked with 100 uL/well LI-COR blocking buffer for 1 hr at room temperature with gentle shaking. The cells were incubated overnight at 4° C. with 50 uL primary antibody rabbit anti-Phospho-ERK1/2 (1: 500, Cell Signaling, #4370) diluted in Intercept Blocking Buffer (LI-COR, #927-60001) containing 0.1% Tween 20. The next day, the cells were washed with 200 uL PBS containing 0.1% Tween 20, 5×5 mins at room temperature with gentle shaking, and incubated with 50 uL secondary antibody, IRDye® 800CW Goat anti-Rabbit IgG (LI-COR, #926-32211), 1:1000, in LI-COR blocking buffer with 0.2% Tween 20 for 1 hr at room temperature with gentle shaking. The cells were washed with 200 uL PBS containing 0.1% Tween 20, 5×5 mins at room temperature with gentle shaking. The cells were washed with PBS for 5 mins. 100 uL fresh PBS was added to each well and the plates were imaged on a LI-COR Odyssey CLX plate reader.

SOS1/KRAS-G12D, sequence (Q07889 564-1049 limits assumed): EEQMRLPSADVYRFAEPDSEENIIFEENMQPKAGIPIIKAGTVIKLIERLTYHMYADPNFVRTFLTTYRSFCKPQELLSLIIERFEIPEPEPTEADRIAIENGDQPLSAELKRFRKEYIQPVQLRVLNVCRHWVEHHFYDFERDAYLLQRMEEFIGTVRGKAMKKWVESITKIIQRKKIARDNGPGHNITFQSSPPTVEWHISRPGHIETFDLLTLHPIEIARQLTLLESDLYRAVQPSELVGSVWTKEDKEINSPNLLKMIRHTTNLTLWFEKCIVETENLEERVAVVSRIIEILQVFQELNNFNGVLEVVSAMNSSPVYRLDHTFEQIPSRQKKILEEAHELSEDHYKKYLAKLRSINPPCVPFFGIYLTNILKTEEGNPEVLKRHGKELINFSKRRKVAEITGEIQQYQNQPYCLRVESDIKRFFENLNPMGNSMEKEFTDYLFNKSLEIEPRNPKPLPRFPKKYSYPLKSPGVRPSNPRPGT

Compound	GI50 (K562 cells) [nM]	IC50 (SOS1/KRAS-G12D) [nM]	IC50 [1] [nM]
COC(=O)N1CCC(F)(c2cc3c(N[C@H](C)c4cccc(C(F)(F)F)c4C)ccnc3cc2OC)CC1 [Compound 74, Methyl (R)-4-fluoro-4-(7-methoxy-4-((1-(2-methyl-3-(trifluoromethyl)phenyl)ethyl)amino)quinolin-6-yl)piperidine-1-carboxylate]	100 to 500	10 to 100	150 to 500
CC(=O)N1CCN(c2ccc3nccc(N[C@H](C)c4cccc(C(F)(F)F)c4C)c3c2)C[C@@H]1C [Compound 33, 1-((S)-2-methyl-4-(4-(((R)-1-(2-methyl-3-(trifluoromethyl)phenyl)ethyl)amino)quinolin-6-yl)piperazin-1-yl)ethan-1-one]	100 to 500	> 100	> 500
COC(=O)N1CC[C@](OC)(c2ccc3nccc(N[C@H](C)c4cccc(C(F)F)c4F)c3c2)C1 [Compound 89, methyl (S)-3-(4-(((R)-1-(3-(difluoromethyl)-2-fluorophenyl)ethyl)amino)quinolin-6-yl)-3-methoxypyrrolidine-1-carboxylate]	≤ 100	≤ 10	> 500
C[C@@H](Nc1ccnc2ccc(N3CC[C@@H](N)C3)cc12)c1cccc(C(F)F)c1F [Compound 9, 6-((R)-3-aminopyrrolidin-1-yl)-N-((R)-1-(3-(difluoromethyl)-2-fluorophenyl)ethyl)quinolin-4-amine]	100 to 500	≤ 10	150 to 500
CO[C@@]1(c2ccc3nccc(N[C@H](C)c4cccc(C#N)c4C)c3c2)CCN(C(C)=O)C1 [Compound 87, 3-((R)-1-((6-((R)-1-acetyl-3-methoxypyrrolidin-3-yl)quinolin-4-yl)amino)ethyl)-2-methylbenzonitrile]	> 500	> 100	> 500
CC(=O)N1C[C@H](C)N(c2ccc3nccc(N[C@H](C)c4cccc(C(F)(F)F)c4C)c3c2)C[C@H]1C [Compound 66, 1-((2R,5S)-2,5-dimethyl-4-(4-(((R)-1-(2-methyl-3-(trifluoromethyl)phenyl)ethyl)amino)quinolin-6-yl)piperazin-1-yl)ethan-1-one]	> 500	> 100	> 500
CC(=O)N1CCC(F)(c2ccc3nccc(N[C@H](C)c4cccc(C(F)F)c4F)c3c2)CC1 [Compound 41, (R)-1-(4-(4-((1-(3-(difluoromethyl)-2-fluorophenyl)ethyl)amino)quinolin-6-yl)-4-fluoropiperidin-1-yl)ethan-1-one]	≤ 100	≤ 10	150 to 500
CO[C@@]1(c2ccc3nccc(N[C@H](C)c4cccc(C(F)F)c4F)c3c2)CCN(C(=O)C(C)C)C1 [Compound 91, 1-((R)-3-(4-(((R)-1-(3-(difluoromethyl)-2-fluorophenyl)ethyl)amino)quinolin-6-yl)-3-methoxypyrrolidin-1-yl)-2-methylpropan-1-one]	100 to 500	≤ 10	> 500
CNC(=O)N1CC[C@](OC)(c2ccc3nccc(N[C@H](C)c4cccc(C(F)F)c4F)c3c2)C1 [Compound 102, (S)-3-(4-(((R)-1-(3-(difluoromethyl)-2-fluorophenyl)ethyl)amino)quinolin-6-yl)-3-methoxy-N-methylpyrrolidine-1-carboxamide]	≤ 100	≤ 10	≤ 150
COC(=O)N1CCC(OC)(c2ccc3nccc(N[C@H](C)c4cccc(C(F)F)c4F)c3c2)CC1 [Compound 100, methyl (R)-4-(4-((1-(3-(difluoromethyl)-2-fluorophenyl)ethyl)amino)quinolin-6-yl)-4-methoxypiperidine-1-carboxylate]	100 to 500	≤ 10	150 to 500
Cc1c([C@@H](C)Nc2ccnc3ccc(N4CCC(N5CCC5)CC4)cc23)cccc1C(F)(F)F [Compound 65, (R)-6-(4-(azetidin-1-yl)piperidin-1-yl)-N-(1-(2-methyl-3-(trifluoromethyl)phenyl)ethyl)quinolin-4-amine]	> 500	10 to 100	> 500
CC(=O)N[C@H]1CCN(c2ccc3nccc(N[C@H](C)c4cccc(C(F)(F)F)c4C)c3c2)C1 [Compound 39, N-((S)-1-(4-(((R)-1-(2-methyl-3-(trifluoromethyl)phenyl)ethyl)amino)quinolin-6-yl)pyrrolidin-3-yl)acetamide]	> 500	> 100	> 500
CO[C@@]1(c2ccc3nccc(N[C@H](C)c4cccc(C(F)F)c4F)c3c2)CCN(C(=O)C2CC2)C1 [Compound 95, cyclopropyl((R)-3-(4-(((R)-1-(3-(difluoromethyl)-2-fluorophenyl)ethyl)amino)quinolin-6-yl)-3-methoxypyrrolidin-1-yl)methanone]	100 to 500	≤ 10	> 500
Cc1c([C@@H](C)Nc2ccnc3ccc(N4CCNC(C)(C)C4)cc23)cccc1C(F)(F)F [Compound 35]	100 to 500	10 to 100	> 500
Cc1c([C@@H](C)Nc2ccnc3ccc(N4CCN(C(=O)C5COC5)CC4)cc23)cccc1C(F)(F)F [Compound 29, (R)-(4-(4-((1-(2-methyl-3-(trifluoromethyl)phenyl)ethyl)amino)quinolin-6-yl)piperazin-1-yl)(oxetan-3-yl)methanone]	100 to 500	10 to 100	> 500
COC(=O)N1CC[C@@](OC)(c2ccc3nccc(N[C@H](C)c4cccc(C(F)F)c4F)c3c2)C1 [Compound 90, methyl (R)-3-(4-(((R)-1-(3-(difluoromethyl)-2-fluorophenyl)ethyl)amino)quinolin-6-yl)-3-methoxypyrrolidine-1-carboxylate]	100 to 500	10 to 100	> 500
C[C@@H](Nc1ccnc2ccc(N3CCN(C(=O)C4COC4)CC3)cc12)c1cccc(C(F)F)c1F [Compound 16, (R)-(4-(4-((1-(3-(difluoromethyl)-2-fluorophenyl)ethyl)amino)quinolin-6-yl)piperazin-1-yl)(oxetan-3-yl)methanone]	≤ 100	≤ 10	≤ 150
CNC1CCN(c2ccc3nccc(N[C@H](C)c4cccc(C(F)(F)F)c4C)c3c2)CC1 [Compound 28, (R)-N-(1-(2-methyl-3-(trifluoromethyl)phenyl)ethyl)-6-(4-(methylamino)piperidin-1-yl)quinolin-4-amine]	> 500	10 to 100	> 500
COC1(c2ccc3nccc(N[C@H](C)c4cccc(C(F)(F)F)c4C)c3c2)CCN(C(=O)C(C)C)CC1 [Compound 80, (R)-1-(4-methoxy-4-(4-((1-(2-methyl-3-(trifluoromethyl)phenyl)ethyl)amino)quinolin-6-yl)piperidin-1-yl)-2-methylpropan-1-one]	100 to 500	10 to 100	> 500
